Source: patent US12227500B2, “Substituted pyrrolo[2,3-b]pyridines for suppressing toxic endoplasmic reticulum stress” (THE TRUSTEES OF COLUMBIA UNIVERSITY IN THE CITY OF NEW YORK, priority 2018, dated 2025)
Read-outs that look alike come from different tables or passages of the source.

Tests used:
Assay in all cases: Radiolabeled ATP kinase assay, panel of 60 kinases (Table S5)
Format in all cases: biochemical
[1] = biological target: T1, panel of 60 human kinases (Homo sapiens, UniProt Q92630); conditions: DYRK2; 0.1 μM; 10 μM ATP; read-out: % Enzyme Activity (relative to DSMO controls)
T1 construct: purchased Reaction Biology Corp
T1 sequence (Q92630 1-601): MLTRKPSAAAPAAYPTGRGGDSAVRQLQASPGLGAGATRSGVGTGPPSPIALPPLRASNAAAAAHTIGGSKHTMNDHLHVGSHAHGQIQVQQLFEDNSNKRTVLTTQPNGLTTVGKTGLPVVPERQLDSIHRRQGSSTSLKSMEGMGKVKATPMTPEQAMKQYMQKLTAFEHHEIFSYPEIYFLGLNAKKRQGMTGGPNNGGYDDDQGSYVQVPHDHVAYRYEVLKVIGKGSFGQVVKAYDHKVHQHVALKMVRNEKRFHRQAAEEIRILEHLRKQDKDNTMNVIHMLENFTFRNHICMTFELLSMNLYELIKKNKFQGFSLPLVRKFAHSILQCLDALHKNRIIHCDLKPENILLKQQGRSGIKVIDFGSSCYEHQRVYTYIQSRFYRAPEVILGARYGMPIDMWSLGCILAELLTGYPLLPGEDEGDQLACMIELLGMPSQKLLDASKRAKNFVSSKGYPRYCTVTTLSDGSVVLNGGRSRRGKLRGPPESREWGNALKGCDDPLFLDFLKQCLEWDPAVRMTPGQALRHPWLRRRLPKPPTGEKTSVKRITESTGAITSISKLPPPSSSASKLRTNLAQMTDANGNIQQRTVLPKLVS
Procedure, shortened: (§1)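 Cell-free radiolabeled-ATP kinase assays across a panel of 60 kinases; each compound tested at 0.1 μM and 0.5 μM for inhibition.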

[2] = biological target: T2, panel of 60 human kinases (Homo sapiens, UniProt P42684); conditions: ABL2/ARG; 0.1 μM; 10 μM ATP; read-out: % Enzyme Activity (relative to DSMO controls)
T2 construct: purchased Reaction Biology Corp
Procedure, shortened: as §1

[3] = biological target: T3, panel of 60 human kinases (Homo sapiens, UniProt P08581); conditions: c-MET; 0.1 μM; 10 μM ATP; read-out: % Enzyme Activity (relative to DSMO controls)
T3 construct: purchased Reaction Biology Corp
Procedure, shortened: as §1

[4] = biological target: T4, panel of 60 human kinases (Homo sapiens, UniProt O60285); conditions: ARK5/NUAK1; 0.1 μM; 10 μM ATP; read-out: % Enzyme Activity (relative to DSMO controls)
T4 construct: purchased Reaction Biology Corp
T4 sequence (O60285 1-661): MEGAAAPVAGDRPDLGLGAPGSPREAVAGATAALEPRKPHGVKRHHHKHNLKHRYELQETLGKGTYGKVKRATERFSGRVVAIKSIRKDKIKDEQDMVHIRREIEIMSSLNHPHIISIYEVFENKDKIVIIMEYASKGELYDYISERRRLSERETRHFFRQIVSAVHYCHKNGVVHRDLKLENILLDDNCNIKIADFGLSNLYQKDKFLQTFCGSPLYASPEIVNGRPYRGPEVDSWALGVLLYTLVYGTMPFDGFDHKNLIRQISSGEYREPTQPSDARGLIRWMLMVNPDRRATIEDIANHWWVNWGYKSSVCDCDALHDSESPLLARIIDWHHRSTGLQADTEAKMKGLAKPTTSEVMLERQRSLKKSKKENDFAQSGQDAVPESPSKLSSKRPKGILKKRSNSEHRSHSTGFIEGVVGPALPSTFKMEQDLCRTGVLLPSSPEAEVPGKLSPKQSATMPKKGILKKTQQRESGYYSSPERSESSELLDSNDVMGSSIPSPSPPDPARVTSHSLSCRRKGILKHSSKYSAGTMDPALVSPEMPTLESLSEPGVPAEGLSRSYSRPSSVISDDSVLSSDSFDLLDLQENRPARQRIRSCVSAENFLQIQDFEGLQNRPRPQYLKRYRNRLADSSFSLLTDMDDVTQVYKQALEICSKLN
Procedure, shortened: as §1

[5] = biological target: T5, panel of 60 human kinases (Homo sapiens, UniProt P53778); conditions: P38g; 0.1 μM; 10 μM ATP; read-out: % Enzyme Activity (relative to DSMO controls)
T5 construct: purchased Reaction Biology Corp
T5 sequence (P53778 1-367): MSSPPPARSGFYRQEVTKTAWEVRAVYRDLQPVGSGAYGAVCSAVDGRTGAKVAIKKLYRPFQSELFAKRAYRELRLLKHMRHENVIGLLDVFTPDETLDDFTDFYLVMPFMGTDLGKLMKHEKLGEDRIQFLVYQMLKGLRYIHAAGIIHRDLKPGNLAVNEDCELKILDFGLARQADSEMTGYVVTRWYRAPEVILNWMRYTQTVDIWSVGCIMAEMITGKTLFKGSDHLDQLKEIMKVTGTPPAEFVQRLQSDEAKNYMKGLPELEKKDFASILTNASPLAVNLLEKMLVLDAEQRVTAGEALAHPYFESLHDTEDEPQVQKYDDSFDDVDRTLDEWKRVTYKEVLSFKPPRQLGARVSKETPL
Procedure, shortened: as §1

[6] = biological target: T6, panel of 60 human kinases (Homo sapiens, UniProt O75460); conditions: ERN1/IRE1; 0.1 μM; 10 μM ATP; read-out: % Enzyme Activity (relative to DSMO controls)
T6 construct: purchased Reaction Biology Corp
Procedure, shortened: as §1

[7] = biological target: T7, panel of 60 human kinases (Homo sapiens, UniProt Q00536); conditions: CDK16/cyclin Y (PCTAIRE); 0.1 μM; 10 μM ATP; read-out: % Enzyme Activity (relative to DSMO controls)
T7 construct: purchased Reaction Biology Corp
Procedure, shortened: as §1

[8] = biological target: T8, panel of 60 human kinases (Homo sapiens, UniProt P45983); conditions: JNK1; 0.1 μM; 10 μM ATP; read-out: % Enzyme Activity (relative to DSMO controls)
T8 construct: purchased Reaction Biology Corp
Procedure, shortened: as §1

[9] = biological target: T9, panel of 60 human kinases (Homo sapiens, UniProt Q9HAZ1); conditions: CLK4; 0.1 μM; 10 μM ATP; read-out: % Enzyme Activity (relative to DSMO controls)
T9 construct: purchased Reaction Biology Corp
Procedure, shortened: as §1

[10] = biological target: T10, panel of 60 human kinases (Homo sapiens, UniProt Q00534); conditions: 0.1 μM, 10 μM ATP, read-out: % Enzyme Activity (relative to DSMO controls)
T10 construct: purchased Reaction Biology Corp
Procedure, shortened: as §1

[11] = biological target: T11, panel of 60 human kinases (Homo sapiens, UniProt P49759); conditions: CLK1; 0.1 μM; 10 μM ATP; read-out: % Enzyme Activity (relative to DSMO controls)
T11 construct: purchased Reaction Biology Corp
Procedure, shortened: as §1

T10 sequence (Q00534 whole entry): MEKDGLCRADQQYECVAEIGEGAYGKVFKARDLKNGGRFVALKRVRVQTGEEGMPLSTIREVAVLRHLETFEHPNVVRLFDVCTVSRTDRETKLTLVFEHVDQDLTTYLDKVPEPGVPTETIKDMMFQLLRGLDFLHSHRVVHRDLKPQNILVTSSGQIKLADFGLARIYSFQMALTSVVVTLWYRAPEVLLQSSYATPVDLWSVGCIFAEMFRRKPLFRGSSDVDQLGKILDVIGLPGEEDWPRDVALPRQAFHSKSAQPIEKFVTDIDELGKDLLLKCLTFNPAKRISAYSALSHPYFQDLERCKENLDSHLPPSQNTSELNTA
T8 sequence (P45983 whole entry): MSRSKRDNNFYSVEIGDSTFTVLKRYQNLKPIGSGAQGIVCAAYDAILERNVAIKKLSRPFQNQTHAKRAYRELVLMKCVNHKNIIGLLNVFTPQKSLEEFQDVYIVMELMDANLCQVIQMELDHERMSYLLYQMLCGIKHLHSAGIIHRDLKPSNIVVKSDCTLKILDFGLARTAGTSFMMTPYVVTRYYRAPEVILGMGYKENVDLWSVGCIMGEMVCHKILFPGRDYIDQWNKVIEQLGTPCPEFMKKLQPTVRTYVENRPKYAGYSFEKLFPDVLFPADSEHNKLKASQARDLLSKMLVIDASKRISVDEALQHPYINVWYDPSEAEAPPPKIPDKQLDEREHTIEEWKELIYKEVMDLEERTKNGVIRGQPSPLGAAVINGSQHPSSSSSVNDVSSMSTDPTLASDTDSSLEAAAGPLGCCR
T3 sequence (P08581 25-1390): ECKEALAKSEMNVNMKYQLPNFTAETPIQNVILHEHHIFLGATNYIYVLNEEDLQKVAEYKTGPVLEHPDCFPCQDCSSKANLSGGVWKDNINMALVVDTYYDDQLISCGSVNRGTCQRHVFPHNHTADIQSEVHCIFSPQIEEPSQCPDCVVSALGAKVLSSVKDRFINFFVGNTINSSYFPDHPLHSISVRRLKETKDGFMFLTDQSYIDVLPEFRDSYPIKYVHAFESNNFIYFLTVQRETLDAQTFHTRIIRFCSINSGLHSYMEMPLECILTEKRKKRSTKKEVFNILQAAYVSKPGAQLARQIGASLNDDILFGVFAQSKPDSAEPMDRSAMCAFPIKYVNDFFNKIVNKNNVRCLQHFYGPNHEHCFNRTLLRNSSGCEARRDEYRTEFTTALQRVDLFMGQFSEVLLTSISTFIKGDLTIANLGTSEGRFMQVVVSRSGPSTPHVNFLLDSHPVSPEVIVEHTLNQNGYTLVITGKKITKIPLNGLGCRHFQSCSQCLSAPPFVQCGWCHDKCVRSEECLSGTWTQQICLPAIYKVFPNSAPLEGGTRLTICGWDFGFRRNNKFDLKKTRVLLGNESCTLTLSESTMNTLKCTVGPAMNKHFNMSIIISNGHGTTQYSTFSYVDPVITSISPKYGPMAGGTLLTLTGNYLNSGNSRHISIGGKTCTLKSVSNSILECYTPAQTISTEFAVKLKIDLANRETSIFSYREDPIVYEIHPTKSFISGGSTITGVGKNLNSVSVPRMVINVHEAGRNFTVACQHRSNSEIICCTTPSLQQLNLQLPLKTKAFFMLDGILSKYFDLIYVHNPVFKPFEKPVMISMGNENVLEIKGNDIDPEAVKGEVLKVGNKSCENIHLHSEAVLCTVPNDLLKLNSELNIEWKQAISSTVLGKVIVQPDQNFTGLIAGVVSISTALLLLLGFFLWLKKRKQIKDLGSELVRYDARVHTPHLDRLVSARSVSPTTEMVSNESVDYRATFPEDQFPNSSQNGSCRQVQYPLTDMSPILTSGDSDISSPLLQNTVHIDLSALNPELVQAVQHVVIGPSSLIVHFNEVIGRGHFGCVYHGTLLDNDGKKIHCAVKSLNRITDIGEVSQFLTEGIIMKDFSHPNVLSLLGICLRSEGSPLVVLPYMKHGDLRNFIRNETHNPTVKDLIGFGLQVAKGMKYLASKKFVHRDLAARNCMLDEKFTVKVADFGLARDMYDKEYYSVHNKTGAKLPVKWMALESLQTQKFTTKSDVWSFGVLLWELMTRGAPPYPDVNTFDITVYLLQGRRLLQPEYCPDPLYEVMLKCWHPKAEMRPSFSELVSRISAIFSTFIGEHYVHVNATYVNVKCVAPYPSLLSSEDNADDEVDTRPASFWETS
T6 sequence (O75460 19-977): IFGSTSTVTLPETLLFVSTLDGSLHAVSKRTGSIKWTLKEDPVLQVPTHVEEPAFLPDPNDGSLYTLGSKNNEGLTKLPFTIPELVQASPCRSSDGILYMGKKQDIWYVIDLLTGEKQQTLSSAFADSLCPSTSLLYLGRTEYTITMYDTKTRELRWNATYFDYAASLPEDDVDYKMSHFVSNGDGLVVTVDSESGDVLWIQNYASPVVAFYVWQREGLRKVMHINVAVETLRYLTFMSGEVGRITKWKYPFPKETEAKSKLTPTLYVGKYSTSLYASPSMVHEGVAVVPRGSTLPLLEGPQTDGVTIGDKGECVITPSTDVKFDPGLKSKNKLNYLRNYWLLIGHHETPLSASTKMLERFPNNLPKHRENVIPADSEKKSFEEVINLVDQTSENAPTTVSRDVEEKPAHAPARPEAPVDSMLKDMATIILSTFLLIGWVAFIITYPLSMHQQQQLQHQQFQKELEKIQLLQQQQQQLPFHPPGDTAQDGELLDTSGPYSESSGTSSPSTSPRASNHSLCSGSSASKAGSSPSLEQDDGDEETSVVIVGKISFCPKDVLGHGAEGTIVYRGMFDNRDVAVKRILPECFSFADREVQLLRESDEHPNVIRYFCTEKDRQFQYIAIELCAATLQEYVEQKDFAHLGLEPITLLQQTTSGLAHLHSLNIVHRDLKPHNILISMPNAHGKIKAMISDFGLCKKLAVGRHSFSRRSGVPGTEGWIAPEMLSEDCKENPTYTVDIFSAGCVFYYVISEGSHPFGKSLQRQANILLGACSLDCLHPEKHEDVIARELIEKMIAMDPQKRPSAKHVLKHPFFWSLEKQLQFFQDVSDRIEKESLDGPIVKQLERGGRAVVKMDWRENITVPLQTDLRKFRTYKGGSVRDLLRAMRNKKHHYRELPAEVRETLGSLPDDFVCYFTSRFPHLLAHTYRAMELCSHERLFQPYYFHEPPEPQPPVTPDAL
T9 sequence (Q9HAZ1 whole entry): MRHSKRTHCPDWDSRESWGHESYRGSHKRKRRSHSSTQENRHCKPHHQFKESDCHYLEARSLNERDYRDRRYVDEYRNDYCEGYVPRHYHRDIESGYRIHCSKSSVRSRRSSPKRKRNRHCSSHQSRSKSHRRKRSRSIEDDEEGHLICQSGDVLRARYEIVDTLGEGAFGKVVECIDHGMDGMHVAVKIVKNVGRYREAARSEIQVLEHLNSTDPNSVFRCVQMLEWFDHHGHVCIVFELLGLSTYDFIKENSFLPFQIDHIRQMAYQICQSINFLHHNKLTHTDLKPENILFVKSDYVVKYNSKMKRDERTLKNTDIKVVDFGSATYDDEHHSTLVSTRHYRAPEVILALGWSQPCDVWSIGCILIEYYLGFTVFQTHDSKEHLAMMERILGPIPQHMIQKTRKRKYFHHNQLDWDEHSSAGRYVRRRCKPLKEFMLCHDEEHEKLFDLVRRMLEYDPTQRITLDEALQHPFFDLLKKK
T2 sequence (P42684 whole entry): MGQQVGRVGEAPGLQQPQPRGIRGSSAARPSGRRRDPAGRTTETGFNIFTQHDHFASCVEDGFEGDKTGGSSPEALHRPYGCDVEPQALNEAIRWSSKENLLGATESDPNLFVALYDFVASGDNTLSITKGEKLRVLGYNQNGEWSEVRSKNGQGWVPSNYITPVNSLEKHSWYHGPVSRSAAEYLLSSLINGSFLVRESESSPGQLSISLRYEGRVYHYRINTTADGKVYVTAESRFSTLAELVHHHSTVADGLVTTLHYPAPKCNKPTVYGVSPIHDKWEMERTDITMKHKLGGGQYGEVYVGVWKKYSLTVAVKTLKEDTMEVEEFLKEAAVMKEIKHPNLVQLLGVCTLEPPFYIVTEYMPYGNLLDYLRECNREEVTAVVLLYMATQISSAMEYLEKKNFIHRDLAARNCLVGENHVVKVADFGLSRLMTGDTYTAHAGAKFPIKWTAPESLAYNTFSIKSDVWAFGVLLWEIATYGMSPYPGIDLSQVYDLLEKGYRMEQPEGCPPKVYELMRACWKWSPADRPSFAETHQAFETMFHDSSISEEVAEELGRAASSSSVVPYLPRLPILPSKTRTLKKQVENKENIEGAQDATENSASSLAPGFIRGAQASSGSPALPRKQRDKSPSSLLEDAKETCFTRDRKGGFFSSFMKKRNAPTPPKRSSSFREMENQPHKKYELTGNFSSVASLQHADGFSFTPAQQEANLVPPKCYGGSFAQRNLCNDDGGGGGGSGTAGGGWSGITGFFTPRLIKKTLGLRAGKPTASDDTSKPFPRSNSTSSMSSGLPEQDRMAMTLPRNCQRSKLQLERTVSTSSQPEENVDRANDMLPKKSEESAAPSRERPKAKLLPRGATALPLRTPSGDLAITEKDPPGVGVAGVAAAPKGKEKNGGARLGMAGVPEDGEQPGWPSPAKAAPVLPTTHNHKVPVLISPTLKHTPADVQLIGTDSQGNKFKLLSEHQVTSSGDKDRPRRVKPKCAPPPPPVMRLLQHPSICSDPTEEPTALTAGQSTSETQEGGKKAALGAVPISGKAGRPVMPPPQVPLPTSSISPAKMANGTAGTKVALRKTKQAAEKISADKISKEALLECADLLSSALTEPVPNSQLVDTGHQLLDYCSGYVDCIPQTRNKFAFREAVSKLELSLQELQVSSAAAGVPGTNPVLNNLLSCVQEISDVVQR

Molecule CN1CCN(Cc2ccc(-c3cnc4[nH]cc(-c5ccoc5)c4c3)cc2)CC1 [Compound 7w, 3-(Furan-3-yl)-5-(4-((4-methylpiperazin-1-yl)methyl)phenyl)-1H-pyrrolo[2,3-b]pyridine] has a remaining activity at 0.1 µM [1] of 90.4%, a remaining activity at 0.1 µM [2] of 77.6% and a remaining activity at 0.1 µM [3] of 96.6%. It also gave a remaining activity at 0.1 µM [4] of 14.8%, a remaining activity at 0.1 µM [5] of 116% and a remaining activity at 0.1 µM [6] of 102%. The remaining activity at 0.1 µM [7] was 80.8%, the remaining activity at 0.1 µM [8] was 76.8% and the remaining activity at 0.1 µM [9] was 85.5%. The remaining activity at 0.1 µM ([10]; CDK6/cyclin D1) was 58.5%, the remaining activity at 0.1 µM ([10]; CDK6/cyclin D3) was 68.4% and the remaining activity at 0.1 µM [11] was 81.9%.
